Experimental data reported in a melting point compilation (Tetko et al.; mined from patent text by program, amines drawn as free bases though some values may be those of a salt).

For `CO[C@@H](C)[C@](C)(OC)c1cc(F)cc(OCc2ccc3ccccc3c2)c1` (racemic), which melting point is on record?
The melting point was 58 to 59 °C.

Which melting point does the source give for `CNc1nc(-c2cncc(Br)c2)c2cc(OC)c(OC)cc2n1` here?
Its melting point is 228 to 230 °C.

For `CC1(C)NC(=O)N(c2ccc(F)cc2)C1=O`, which melting point is on record?
The melting point was 166 to 167 °C.

For `CCCCN(C1CCCOc2ccccc21)S(C)(=O)=O` (stereo not drawn), which melting point is on record?
The melting point was 78 to 79 °C.

Which melting point does the source give for `COC(=O)c1ccc(C(=O)N(C)C)cc1` here?
The melting point was 107 °C.

With `Cc1cc(C)cc(C(=O)N2CC[C@H](NCc3ccnc4ccccc34)C[C@H]2Cc2ccc(Cl)cc2)c1` (relative stereo) as the compound, how does the melting point read?
The melting point was 148 to 149 °C.

For `O=C(O)[C@H](Cc1ccsc1)NN1C(=O)c2ccccc2C1=O`, which melting point is on record?
Its melting point is 166 to 168 °C.

Which melting point does the source give for `CCCOc1cc(=O)n(CCC)c(=O)n1Cc1ccc(-c2ccccc2C2NOC(=O)N2)cc1` (stereo not drawn) here?
Its melting point is 129 to 132 °C.

With `COc1cc2c(cc1OC)CC(NC(=O)C1CCCN1C(C)=O)CC2` (stereo not drawn) as the compound, how does the melting point read?
Its melting point is 63 to 65 °C.

For `COc1ccc2nc(-c3ccc(N)cc3)sc2c1`, which melting point is on record?
Its melting point is 191 to 193 °C.

For `COc1cc(CN2CCN(C(=O)c3cc4ccccc4oc3=O)CC2)cc(OC)c1OC`, which melting point is on record?
Its melting point is 171 to 173 °C.

With `COc1ccc(-c2nc(N(C)C)c3c(C)c(C#N)sc3n2)cc1OC` as the compound, how does the melting point read?
Its melting point is 198 to 200 °C.

With `COC(=O)c1ccc(Cl)c(Cn2nnn(C3CC3)c2=O)c1Cl` as the compound, how does the melting point read?
The melting point was 99 to 100 °C.

Which melting point does the source give for `C=CON=C(C(=O)OCC)c1csc(NC(c2ccccc2)(c2ccccc2)c2ccccc2)n1` here?
The melting point was 114 °C.

Which melting point does the source give for `O=C1CN(Cc2ccccc2)CC2=C1N=C1N=C(N3CCOCC3)NN1C2` here?
Its melting point is 291 to 293 °C.

With `CCOC(=O)c1cnn(-c2cccc(N(C)C)n2)c1S(N)(=O)=O` as the compound, how does the melting point read?
Its melting point is 157 to 160 °C.

Which melting point does the source give for `O=C(O)CCCc1oc(-n2cnc3ccccc32)nc1-c1ccc(Cl)cc1` here?
Its melting point is 199 to 200 °C.

Which melting point does the source give for `COC(=S)c1ccc(-c2ccccc2)c(S(C)(=O)=O)c1` here?
The melting point was 155 to 156 °C.

With `COc1ccc(C(=O)Oc2ccccc2)nc1C` as the compound, how does the melting point read?
The melting point was 103 to 105 °C.

For `CCCCCC1CCC(c2ccc(-c3cc(F)c(C(F)(F)Oc4cc(F)c(C(F)(F)F)c(F)c4)c(F)c3)c(F)c2)OC1` (stereo not drawn), which melting point is on record?
The melting point was 75 °C.

For `CCOC(=O)c1cn(C2CN(C(c3ccccc3)c3ccccc3)C2)c2cc(F)c(F)cc2c1=O`, which melting point is on record?
The melting point was 196 to 201 °C.

Which melting point does the source give for `CC(C)N(CCO)C(=O)c1noc2ccccc12` here?
Its melting point is 92 to 94 °C.

With `O=C(c1nc2ccc(O)cc2[nH]1)N1CCC(=Cc2ccccc2)CC1` as the compound, how does the melting point read?
Its melting point is 148 °C.

Which melting point does the source give for `COc1ccc(C2=NNC(=O)C(C)C2)cc1` (stereo not drawn) here?
Its melting point is 203 to 206 °C.

For `Nc1cc(F)ccc1C(=O)NCCN1CCC(n2c(=O)[nH]c3ccccc32)CC1`, which melting point is on record?
Its melting point is 229 °C.

Which melting point does the source give for `O=C(NCCO)C(Oc1ccc(F)c(C(F)(F)F)c1)c1ccc(Cl)cc1` (stereo not drawn) here?
Its melting point is 95 °C.

For `CC1(C)OC(=O)Nc2ccc(-c3cc(F)cc(Cl)c3)cc21`, which melting point is on record?
Its melting point is 193 to 194 °C.

With `COc1ccc(C2CC(=O)N(C(=O)Nc3ccc(F)cc3)N2C)cc1OC1CCCC1` (stereo not drawn) as the compound, how does the melting point read?
Its melting point is 123 to 124 °C.

For `CC(=O)OC1CSC(Oc2cnccc2C#N)C(OC(C)=O)C1OC(C)=O` (stereo not drawn), which melting point is on record?
Its melting point is 167 °C.

Which melting point does the source give for `O=C(O)c1ccc2c(c1)Nc1ccccc1S2` here?
Its melting point is greater than 235 °C.

For `NC(=O)Cc1ccc(CCCOCCCCCCBr)cc1`, which melting point is on record?
Its melting point is 110 to 113 °C.

For `CC(C)(C)OC(=O)N1CCCC(Nc2cc(Cl)n[nH]c2=O)C1` (stereo not drawn), which melting point is on record?
The melting point was 195 to 196 °C.

With `CCN1C(=O)C(C)(C)C(=O)N(C)c2cc(CN(CCn3ccc4oc(C)cc4c3=O)Cc3ncoc3C)ccc21` as the compound, how does the melting point read?
The melting point was 129 to 130 °C.

Which melting point does the source give for `CC(C)(CNC(=O)COCC(=O)OCOC(=O)Cc1ccccc1Nc1c(Cl)cccc1Cl)SN=O` here?
Its melting point is 66 °C.

For `CC(C)(C)OC(=O)Nc1c(F)cccc1OCc1ccccc1`, which melting point is on record?
The melting point was 103 to 106 °C.

For `O=S(=O)(Nc1ccc2c(-c3ccccc3Cl)n[nH]c2c1)c1cccc(Cl)c1`, which melting point is on record?
Its melting point is 187 to 189 °C.

Which melting point does the source give for `CN(C)CCC1=Cc2ccc(NC(=O)c3ccc(-c4ccccc4)cc3)cc2CC1` here?
The melting point was 148 to 150 °C.

For `COCn1c(-c2nccs2)c(Cl)c2cccc(NS(=O)(=O)c3cccs3)c21`, which melting point is on record?
Its melting point is 128 to 129 °C.

With `Brc1ccc(SC23CC4CC(CC(C4)C2)C3)cc1` as the compound, how does the melting point read?
The melting point was 121 to 122 °C.

With `CCn1c(=O)c2c(nc(/C=C/c3cc4c(c(OC(C)=O)c3)OCO4)n2C)n(CC)c1=O` as the compound, how does the melting point read?
Its melting point is greater than 270 °C.

Which melting point does the source give for `Cc1ccc(-c2ccc(C)c(C)n2)cc1` here?
The melting point was 76 °C.

For `O=c1[nH]c2ccccc2n1CCN1CCc2c([nH]c3ccccc23)C1`, which melting point is on record?
Its melting point is 214 to 216 °C.

With `c1ccc2c(c1)c1ccccc1c1cc(-c3ccc4c5ccccc5c5ccccc5c4c3)ccc21` as the compound, how does the melting point read?
The melting point was 356 °C.

With `C=C(F)c1cc(O)cc2nc(-c3ccc(O)c(F)c3)oc12` as the compound, how does the melting point read?
The melting point was 213 to 214 °C.

Which melting point does the source give for `CCCCCCCc1ccc(NS(=O)(=O)c2ccc(N3CCNC3=O)cc2)cc1` here?
Its melting point is 188 to 190 °C.

Which melting point does the source give for `CC(C)COc1ccccc1OCCOS(C)(=O)=O` here?
Its melting point is 59 to 61 °C.

For `O=C(O)c1ccc(CCCC2SCC(=O)N2C/C=C\C2(O)CCCCC2)cc1` (stereo not drawn), which melting point is on record?
The melting point was 118 to 120 °C.

Which melting point does the source give for `COC(=O)c1cc2cc(OC)c(OC)cc2c(-c2ccnc(N3C(=O)CCc4ccccc43)c2)c1C(=O)OC` here?
Its melting point is 229 to 233 °C.
